According to publication PMC9596378, “Discovery and molecular basis of subtype-selective cyclophilin inhibitors” (Nature Chemical Biology, 2022):

Assays:
Assay in all cases: Anisotropy (fluorescence polarization) binding assay
CypA = biological target: T1, CypA (Homo sapiens, UniProt P62937); conditions: 0.5 nM fluorescein-labeled macrocycle
T1 construct: PPIA (UniProtKB Entry P62937: residues 1–165); made in house; host or cells: E. coli BL21(DE3)
Description: (§1) Final assay volume was 100 µL with 0.25% DMSO. Fluorescence anisotropy was then measured using a Tecan Spark plate reader using 492 nm/523 nm excitation/emission settings.

CypB = biological target: T2, CypB (Homo sapiens, UniProt P23284); conditions: 0.5 nM fluorescein-labeled macrocycle
T2 construct: PPIB (UniProtKB Entry P23284: residues 34–216); His6 with TEV site (2BT vector leader) (N); made in house; host or cells: E. coli BL21(DE3)
T2 sequence (P23284 34-216): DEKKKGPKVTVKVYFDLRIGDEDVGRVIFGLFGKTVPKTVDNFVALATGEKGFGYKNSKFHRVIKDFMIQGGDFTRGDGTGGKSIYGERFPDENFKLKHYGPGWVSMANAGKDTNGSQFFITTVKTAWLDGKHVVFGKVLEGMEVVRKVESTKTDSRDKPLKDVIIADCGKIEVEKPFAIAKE
Description: as §1

CypC = biological target: T3, CypC (Homo sapiens, UniProt P45877); conditions: 0.5 nM fluorescein-labeled macrocycle
T3 construct: PPIC (UniProtKB Entry P45877: residues 24–212); host or cells: E. coli BL21(DE3)
T3 sequence (P45877 24-212): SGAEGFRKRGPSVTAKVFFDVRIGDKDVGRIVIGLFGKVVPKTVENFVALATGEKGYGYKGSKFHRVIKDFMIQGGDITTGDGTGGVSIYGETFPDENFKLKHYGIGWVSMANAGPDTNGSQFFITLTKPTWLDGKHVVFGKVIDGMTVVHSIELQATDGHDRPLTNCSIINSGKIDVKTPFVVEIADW
Description: as §1

CypE = biological target: T4, CypE (Homo sapiens, UniProt Q9UNP9); conditions: 0.5 nM fluorescein-labeled macrocycle
T4 construct: PPIE (UniProtKB Entry Q9UNP9: residues 131–301); host or cells: E. coli BL21(DE3)
T4 sequence (Q9UNP9 131-301): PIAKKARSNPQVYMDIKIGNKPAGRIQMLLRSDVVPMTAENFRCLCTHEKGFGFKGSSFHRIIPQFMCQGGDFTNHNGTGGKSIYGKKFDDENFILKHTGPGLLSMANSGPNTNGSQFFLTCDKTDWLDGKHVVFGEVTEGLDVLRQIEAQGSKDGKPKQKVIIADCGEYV
Description: as §1

CypE K212A = biological target: T5, CypE K212A (Homo sapiens, UniProt Q9UNP9, K212A); conditions: 0.5 nM A26-Fl
T5 construct: Lane 4- GS-CypE K212A (131-301);; His6 tag with thrombin site (pET28a LIC); GS remnant stays on the N-terminus (N, cleaved yes); host or cells: E. coli BL21(DE3)
T5 sequence (Q9UNP9 131-301 K212A): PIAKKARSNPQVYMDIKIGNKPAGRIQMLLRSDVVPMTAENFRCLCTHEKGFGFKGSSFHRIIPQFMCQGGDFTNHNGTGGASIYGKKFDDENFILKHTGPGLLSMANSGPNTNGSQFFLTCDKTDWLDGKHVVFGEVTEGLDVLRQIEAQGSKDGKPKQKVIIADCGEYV
Description: as §1

CypE K217A = biological target: T6, CypE K217A (Homo sapiens, UniProt Q9UNP9, K217A); conditions: 0.5 nM A26-Fl
T6 construct: Lane 5- GS-CypE K217A (131-301);; His6 tag with thrombin site (pET28a LIC); GS remnant stays on the N-terminus (N, cleaved yes); host or cells: E. coli BL21(DE3)
T6 sequence (Q9UNP9 131-301 K217A): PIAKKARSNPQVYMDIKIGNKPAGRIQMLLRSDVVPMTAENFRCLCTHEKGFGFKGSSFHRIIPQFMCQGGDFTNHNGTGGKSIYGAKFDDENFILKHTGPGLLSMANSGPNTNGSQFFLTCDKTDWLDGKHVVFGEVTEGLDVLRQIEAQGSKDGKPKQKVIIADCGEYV
Description: as §1

CypE K218A = biological target: T7, CypE K218A (Homo sapiens, UniProt Q9UNP9, K218A); conditions: 0.5 nM A26-Fl
T7 construct: Lane 6- GS-CypE K218A (131-301);; His6 tag with thrombin site (pET28a LIC); GS remnant stays on the N-terminus (N, cleaved yes); host or cells: E. coli BL21(DE3)
T7 sequence (Q9UNP9 131-301 K218A): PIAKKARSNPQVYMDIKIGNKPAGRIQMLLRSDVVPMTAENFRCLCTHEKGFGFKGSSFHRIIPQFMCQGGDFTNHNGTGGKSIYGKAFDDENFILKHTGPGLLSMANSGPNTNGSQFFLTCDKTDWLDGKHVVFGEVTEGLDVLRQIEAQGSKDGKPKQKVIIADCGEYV
Description: as §1

CypG = biological target: T8, CypG (Homo sapiens, UniProt Q13427); conditions: 0.5 nM fluorescein-labeled macrocycle
T8 construct: PPIG (UniProtKB Entry Q13427: residues 1–179); His6 with thrombin site (pET28a LIC leader) (N); host or cells: E. coli BL21(DE3)
T8 sequence (Q13427 1-179): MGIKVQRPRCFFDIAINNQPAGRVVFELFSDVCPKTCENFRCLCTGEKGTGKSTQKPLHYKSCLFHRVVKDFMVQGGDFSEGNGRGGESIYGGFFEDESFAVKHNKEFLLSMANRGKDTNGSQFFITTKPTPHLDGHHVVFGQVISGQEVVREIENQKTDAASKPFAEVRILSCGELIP
Description: as §1

CypH = biological target: T9, CypH (Homo sapiens, UniProt O43447); conditions: 0.5 nM fluorescein-labeled macrocycle
T9 construct: PPIH (UniProtKB Entry O43447: residues 1–177); His6 with TEV site (2BT vector leader) (N); made in house; host or cells: E. coli BL21(DE3)
T9 sequence (O43447 whole entry, the tested form may be a part): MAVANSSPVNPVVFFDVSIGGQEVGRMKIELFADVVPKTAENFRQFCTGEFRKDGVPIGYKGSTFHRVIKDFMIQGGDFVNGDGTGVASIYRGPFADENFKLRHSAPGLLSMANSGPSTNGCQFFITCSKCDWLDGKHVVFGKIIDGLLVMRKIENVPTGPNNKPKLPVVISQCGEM
Description: as §1

NKTR = biological target: T10, NKTR (Homo sapiens, UniProt P30414); conditions: 0.5 nM fluorescein-labeled macrocycle
T10 construct: NKTR (UniProtKB Entry P30414: residues 7–179); host or cells: E. coli BL21(DE3)
T10 sequence (P30414 7-179): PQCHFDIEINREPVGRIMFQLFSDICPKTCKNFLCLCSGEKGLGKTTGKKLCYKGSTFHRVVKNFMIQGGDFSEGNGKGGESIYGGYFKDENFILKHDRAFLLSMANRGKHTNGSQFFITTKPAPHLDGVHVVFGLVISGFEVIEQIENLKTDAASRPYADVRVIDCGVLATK
Description: as §1

PPIL1 = biological target: T11, PPIL1 (Homo sapiens, UniProt Q9Y3C6); conditions: 0.5 nM fluorescein-labeled macrocycle
T11 construct: PPIL1 (UniProtKB Entry Q9Y3C6: residues 1–166); made in house; host or cells: E. coli BL21(DE3)
T11 sequence (Q9Y3C6 1-166): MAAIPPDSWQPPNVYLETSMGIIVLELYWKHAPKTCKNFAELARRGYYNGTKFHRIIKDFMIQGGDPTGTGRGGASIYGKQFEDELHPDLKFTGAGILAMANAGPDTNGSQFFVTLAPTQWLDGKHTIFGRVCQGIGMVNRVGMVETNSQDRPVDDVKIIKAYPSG
Description: as §1

PPIL2 = biological target: T12, PPIL2 (Homo sapiens, UniProt Q13356); conditions: 0.5 nM fluorescein-labeled macrocycle
T12 construct: PPIL2 (UniProtKB Entry Q13356: residues 280–457); His6 tag with thrombin site (pET28a LIC); GS remnant after cleavage (N, cleaved yes); host or cells: E. coli BL21(DE3)
T12 sequence (Q13356 280-457): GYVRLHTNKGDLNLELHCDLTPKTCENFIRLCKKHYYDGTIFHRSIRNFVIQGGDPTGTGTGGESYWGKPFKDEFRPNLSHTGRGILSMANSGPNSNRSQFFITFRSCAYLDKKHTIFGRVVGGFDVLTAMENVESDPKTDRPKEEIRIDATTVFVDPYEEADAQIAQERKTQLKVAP
Description: as §1

PPIL3 = biological target: T13, PPIL3 (Homo sapiens, UniProt Q9H2H8); conditions: 0.5 nM fluorescein-labeled macrocycle
T13 construct: PPIL3 (UniProtKB Entry Q9H2H8: residues 1–161); His6 tag with TEV site (2BT vector); SNA remnant stays on the N-terminus (N, cleaved yes); made in house; host or cells: E. coli BL21(DE3)
T13 sequence (Q9H2H8 whole entry, the tested form may be a part): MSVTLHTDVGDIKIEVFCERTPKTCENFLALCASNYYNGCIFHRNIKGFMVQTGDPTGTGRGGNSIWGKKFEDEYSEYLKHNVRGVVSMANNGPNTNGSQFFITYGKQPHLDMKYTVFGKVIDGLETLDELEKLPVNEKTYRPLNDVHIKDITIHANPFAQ
Description: as §1

PPIL4(Full Length) = biological target: T14, PPIL4(Full Length) (Homo sapiens, UniProt Q8WUA2); conditions: 0.5 nM fluorescein-labeled macrocycle
T14 construct: PPIL4 (full length); purchased Millipore-Sigma
T14 sequence (Q8WUA2 whole entry): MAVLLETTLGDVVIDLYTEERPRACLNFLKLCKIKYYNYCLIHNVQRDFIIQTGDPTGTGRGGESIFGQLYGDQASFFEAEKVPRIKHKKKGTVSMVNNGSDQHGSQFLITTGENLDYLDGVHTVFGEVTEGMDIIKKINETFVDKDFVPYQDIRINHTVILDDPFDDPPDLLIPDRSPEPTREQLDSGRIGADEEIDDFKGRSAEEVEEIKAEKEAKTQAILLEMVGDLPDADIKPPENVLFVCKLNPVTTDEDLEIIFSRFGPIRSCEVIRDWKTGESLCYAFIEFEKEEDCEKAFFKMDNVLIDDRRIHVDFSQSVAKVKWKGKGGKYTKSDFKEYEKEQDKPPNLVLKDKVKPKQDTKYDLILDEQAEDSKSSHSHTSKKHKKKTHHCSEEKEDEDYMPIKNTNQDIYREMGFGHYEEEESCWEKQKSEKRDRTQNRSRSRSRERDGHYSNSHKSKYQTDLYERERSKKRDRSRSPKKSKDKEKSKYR
Description: as §1

PPIL6(C-Myc/DDK) = biological target: T15, PPIL6(C-Myc/DDK) (Homo sapiens, UniProt Q8IXY8); conditions: 0.5 nM fluorescein-labeled macrocycle
T15 construct: Myc; DDK (FLAG); purchased Millipore-Sigma
T15 sequence (Q8IXY8 whole entry): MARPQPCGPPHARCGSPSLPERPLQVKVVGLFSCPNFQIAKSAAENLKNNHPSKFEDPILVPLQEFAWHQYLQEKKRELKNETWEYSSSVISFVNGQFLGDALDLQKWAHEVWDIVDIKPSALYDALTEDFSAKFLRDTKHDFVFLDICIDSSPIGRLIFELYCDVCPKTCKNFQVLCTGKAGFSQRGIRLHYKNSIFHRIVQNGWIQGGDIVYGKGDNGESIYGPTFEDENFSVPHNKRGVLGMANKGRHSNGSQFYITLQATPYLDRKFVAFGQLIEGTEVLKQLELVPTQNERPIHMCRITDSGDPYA
Description: as §1

PPWD1 = biological target: T16, PPWD1 (Homo sapiens, UniProt Q96BP3); conditions: 0.5 nM fluorescein-labeled macrocycle
T16 construct: PPWD1 (UniProtKB Entry Q96BP3: residues 473–646); host or cells: E. coli BL21(DE3)
T16 sequence (Q96BP3 473-646): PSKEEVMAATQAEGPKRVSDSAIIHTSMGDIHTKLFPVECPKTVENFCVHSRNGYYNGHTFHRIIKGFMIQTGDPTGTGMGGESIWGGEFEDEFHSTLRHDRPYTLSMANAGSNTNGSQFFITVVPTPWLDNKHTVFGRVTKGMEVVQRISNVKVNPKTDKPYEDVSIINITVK
Description: as §1

SDCCAG-10(GST) = biological target: T17, SDCCAG-10(GST) (Homo sapiens, UniProt Q6UX04); conditions: 0.5 nM fluorescein-labeled macrocycle
T17 construct: GST; purchased Abnova
T17 sequence (Q6UX04 whole entry): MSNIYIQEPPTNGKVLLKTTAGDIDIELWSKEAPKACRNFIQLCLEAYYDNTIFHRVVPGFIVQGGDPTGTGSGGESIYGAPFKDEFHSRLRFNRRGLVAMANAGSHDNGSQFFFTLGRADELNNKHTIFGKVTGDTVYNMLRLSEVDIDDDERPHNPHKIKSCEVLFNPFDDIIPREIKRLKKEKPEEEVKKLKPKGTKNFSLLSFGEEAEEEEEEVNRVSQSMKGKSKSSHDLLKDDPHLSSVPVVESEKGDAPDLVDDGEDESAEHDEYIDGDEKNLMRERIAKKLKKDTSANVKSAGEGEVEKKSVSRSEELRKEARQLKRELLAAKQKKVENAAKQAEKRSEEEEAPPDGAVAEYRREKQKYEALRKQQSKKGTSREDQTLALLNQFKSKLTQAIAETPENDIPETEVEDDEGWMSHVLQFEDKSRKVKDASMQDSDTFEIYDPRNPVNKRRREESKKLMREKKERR
Description: as §1

Cyp40 = Cyp40 (Homo sapiens, UniProt Q08752); parameters: PPID (UniProtKB Entry Q08752: residues 1–183); made in house; host or cells: E. coli BL21(DE3); conditions: 0.5 nM fluorescein-labeled macrocycle
Sequence of Cyp40 (Q08752 1-183): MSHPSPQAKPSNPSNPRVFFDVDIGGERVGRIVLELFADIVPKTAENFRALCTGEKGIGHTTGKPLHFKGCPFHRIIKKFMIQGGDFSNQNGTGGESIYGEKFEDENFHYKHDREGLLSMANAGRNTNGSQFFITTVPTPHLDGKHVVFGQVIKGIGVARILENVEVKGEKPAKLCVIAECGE
Description: as §1

CypD = CypD (Homo sapiens, UniProt P30405); parameters: PPIF (UniProtKB Entry P30405: residues 45–207); made in house; host or cells: E. coli BL21(DE3); conditions: 0.5 nM fluorescein-labeled macrocycle
Sequence of CypD (P30405 45-207): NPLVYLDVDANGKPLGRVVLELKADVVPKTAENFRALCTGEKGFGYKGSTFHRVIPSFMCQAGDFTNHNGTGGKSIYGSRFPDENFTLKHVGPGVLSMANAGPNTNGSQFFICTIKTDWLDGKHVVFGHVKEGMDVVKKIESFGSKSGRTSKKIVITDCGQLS
Description: as §1

T1 sequence (P62937 whole entry, the tested form may be a part): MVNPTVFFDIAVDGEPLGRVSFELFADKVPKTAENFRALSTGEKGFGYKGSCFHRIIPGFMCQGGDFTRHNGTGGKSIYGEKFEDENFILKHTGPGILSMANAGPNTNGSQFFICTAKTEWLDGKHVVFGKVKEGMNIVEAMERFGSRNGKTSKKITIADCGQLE

Kd (CypA): 51 ± 0.7 nM | Kd (CypB): 34 ± 5 nM | Kd (CypC): 150 ± 30 nM | Kd (CypE): 100 ± 30 nM | Kd (CypE K212A): 130 ± 30 nM | Kd (CypE K217A): 70 ± 10 nM | Kd (CypE K218A): 70 ± 20 nM | Kd (CypG): 170 ± 10 nM | Kd (CypH): 600 ± 100 nM | Kd (NKTR): 1500 ± 400 nM | Kd (PPIL1): 230 ± 40 nM | Kd (PPIL2): > 10 µM | Kd (PPIL3): 1700 ± 600 nM | Kd (PPIL4(Full Length)): > 1000 nM | Kd (PPIL6(C-Myc/DDK)): > 1000 nM | Kd (PPWD1): 1100 ± 600 nM | Kd (SDCCAG-10(GST)): > 1000 nM | Kd (Cyp40): 170 ± 20 nM | Kd (CypD): 17 ± 2 nM
SMILES: O=C1/C=C/C(=O)N2CCC[C@](Cc3ccccc3)(C2)C(=O)N[C@@H](Cc2ccco2)C(=O)NCc2ccccc2CC(=O)N[C@H](C(=O)NCCCOCCOCCOCCCNC(=O)c2ccc3c(c2)C(=O)OC32c3ccc(O)cc3Oc3cc(O)ccc32)CCN1 [Compound A26-Fl]
